# Patent US8563714B2, “Bridged spiro [2.4] heptane derivatives as ALX receptor and/or FPRL2 agonists” (Actelion Pharmaceuticals Ltd., priority 2009, dated 2013)
# pEC50: −log10 of the molar value.
# What was measured:
# [1] = molecular target: T1, human FPRL2 (Homo sapiens, UniProt P25089); assay: Intracellular calcium measurements (FLIPR), agonistic activity in HEK293-hFPRL2-Gα16 cells; assay type: cell-based; conditions: Fluo-4 calcium FLIPR, normalized to GLY14-Humanin 100 nM
# T1 construct: expressed in transfected cells; host or cells: HEK293 (HEK293-hFPRL2-Gα16)
# T1 sequence (P25089 1-353): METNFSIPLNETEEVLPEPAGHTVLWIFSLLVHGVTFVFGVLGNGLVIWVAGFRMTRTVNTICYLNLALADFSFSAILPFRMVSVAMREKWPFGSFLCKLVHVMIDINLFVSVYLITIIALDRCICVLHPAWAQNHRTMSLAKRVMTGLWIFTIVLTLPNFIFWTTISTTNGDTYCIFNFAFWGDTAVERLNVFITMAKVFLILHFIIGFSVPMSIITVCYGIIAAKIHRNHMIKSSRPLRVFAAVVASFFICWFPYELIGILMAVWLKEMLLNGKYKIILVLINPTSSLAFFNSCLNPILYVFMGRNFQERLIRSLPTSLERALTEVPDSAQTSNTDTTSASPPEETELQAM
# Procedure, shortened: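 Peak values after baseline subtraction are expressed relative to 100 nM Gly14-Humanin; compounds diluted in assay buffer from 10 mM DMSO stocks.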
# [2] = molecular target: T2, human ALX receptor (Homo sapiens, UniProt P25090); assay: Intracellular calcium measurements (FLIPR), agonistic activity in HEK293-hALXR-Gα16 cells; assay type: cell-based; conditions: Fluo-4 calcium FLIPR, normalized to WKYMVm 10 nM
# T2 construct: expressed in transfected cells; host or cells: HEK293 (HEK293-hALXR-Gα16)
# T2 sequence (P25090 1-351): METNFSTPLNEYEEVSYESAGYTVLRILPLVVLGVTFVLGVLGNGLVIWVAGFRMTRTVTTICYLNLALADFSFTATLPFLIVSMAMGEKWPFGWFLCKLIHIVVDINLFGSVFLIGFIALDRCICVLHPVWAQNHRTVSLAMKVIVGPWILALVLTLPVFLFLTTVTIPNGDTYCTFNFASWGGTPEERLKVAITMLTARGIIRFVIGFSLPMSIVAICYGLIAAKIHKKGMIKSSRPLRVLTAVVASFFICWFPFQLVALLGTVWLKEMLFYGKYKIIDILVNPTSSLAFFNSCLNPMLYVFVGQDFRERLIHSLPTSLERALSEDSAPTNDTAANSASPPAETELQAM
# Procedure, shortened: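 Agonist-induced calcium flux was recorded by FLIPR (488/540 nm) in HEK293-hALXR-Gα16 cells pre-loaded with Fluo-4 AM (1 μM, 60 min, 37°C). Peak signal above baseline, after subtracting buffer addition, was expressed relative to WKYMVm at 10 nM final.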
pEC50 [1],pEC50 [2],Compound
5.65,7.47,"CCN(CC)CCNC(=O)[C@H]1[C@H](C(=O)Nc2ccc(Br)cc2)[C@@H]2C=C[C@H]1C21CC1 (racemic) [Example 66, (5R*)—N^5-(4-Bromophenyl)-(6R*)—N^6-(2-diethyl-amino-ethyl)-(4S*,7R*)-[4,7-ethenylene-spiro[2.4]heptane]-5,6-dicarboxamide]"
< 4.60,7.47,"CCCCCNC(=O)[C@H]1[C@H](C(=O)Nc2ccc(Br)cc2)[C@@H]2C=C[C@H]1C21CC1 (racemic) [Example 67, (5R*)—N^5-(4-Bromophenyl)-(6R*)—N^6-(pentyl)-(4S*,7R*)-[4,7-ethenylene-spiro[2.4]heptane]-5,6-dicarboxamide]"
6.15,7.24,"CC(C)CCN1CCC(NC(=O)[C@H]2[C@H](C(=O)Nc3ccc(Br)cc3)[C@@H]3C=C[C@H]2C32CC2)CC1 (racemic) [Example 69, (5R*)—N^5-(4-Bromophenyl)-(6R*)—N^6—(N-(3-methyl-butyl)-piperidin-4-yl)-(4S*,7R*)-[4,7-ethenylene-spiro[2.4]heptane]-5,6-dicarboxamide]"
5.36,7.21,"O=C(NCCc1ccccn1)[C@H]1[C@H](C(=O)Nc2ccc(Br)cc2)[C@@H]2C=C[C@H]1C21CC1 (racemic) [Example 70, (5R*)—N^5-(4-Bromophenyl)-(6R*)—N^6-(2-pyridin-2-yl-ethyl)-(4S*,7R*)-[4,7-ethenylene-spiro[2.4]heptane]-5,6-dicarboxamide]"
5.73,7.15,"O=C(Nc1ccnn1-c1ccccc1)[C@H]1[C@H](C(=O)Nc2ccc(Br)cc2)[C@@H]2C=C[C@H]1C21CC1 (racemic) [Example 72, (5R*)—N^5-(4-Bromophenyl)-(6R*)—N^6-(1-phenyl-1H-pyrazol-5-yl)-(4S*,7R*)-[4,7-ethenylene-spiro[2.4]heptane]-5,6-dicarboxamide]"
5.34,7.20,"O=C(NC1CC1)[C@H]1[C@H](C(=O)Nc2ccc(Br)cc2)[C@@H]2C=C[C@H]1C21CC1 (racemic) [Example 73, (5R*)—N^5-(4-Bromophenyl)-(6R*)—N^6-(cyclopropyl)-(4S*,7R*)-[4,7-ethenylene-spiro[2.4]heptane]-5,6-dicarboxamide]"
5.10,7.14,"CCCCCCNC(=O)[C@H]1[C@H](C(=O)Nc2ccc(Br)cc2)[C@@H]2C=C[C@H]1C21CC1 (racemic) [Example 75, (5R*)—N^5-(4-Bromophenyl)-(6R*)—N^6-(hexyl)-(4S*,7R*)-[4,7-ethenylene-spiro[2.4]heptane]-5,6-dicarboxamide]"

# Further lines, the compound ahead of its results:
Compound,pEC50 [1],pEC50 [2]
"O=C(NCCN1CCCC1)[C@H]1[C@H](C(=O)Nc2ccc(Br)cc2)[C@@H]2C=C[C@H]1C21CC1 (racemic) [Example 48, (5R*)—N^5-(4-Bromophenyl)-(6R*)—N^6-(2-pyrrolidin-1-yl-ethyl)-(4S*,7R*)-[4,7-ethenylene-spiro[2.4]heptane]-5,6-dicarboxamide]",5.86,7.92
"O=C(NCCn1cncn1)[C@H]1[C@H](C(=O)Nc2ccc(Br)cc2)[C@@H]2C=C[C@H]1C21CC1 (racemic) [Example 49, (5R*)—N^5-(4-Bromophenyl)-(6R*)—N^6-(2-1H-[1,2,4]-triazol-1-yl-ethyl)-(4S*,7R*)-[4,7-ethenylene-spiro[2.4]heptane]-5,6-dicarboxamide]",5.82,7.92
"O=C(NCc1ccoc1)[C@H]1[C@H](C(=O)Nc2ccc(Br)cc2)[C@@H]2C=C[C@H]1C21CC1 (racemic) [Example 50, (5R*)—N^5-(4-Bromophenyl)-(6R*)—N^6-(furan-3-yl-methyl)-(4S*,7R*)-[4,7-ethenylene-spiro[2.4]heptane]-5,6-dicarboxamide]",5.97,7.89
"CN(C)CCCCCNC(=O)[C@H]1[C@H](C(=O)Nc2ccc(Br)cc2)[C@@H]2C=C[C@H]1C21CC1 (racemic) [Example 51, (5R*)—N^5-(4-Bromophenyl)-(6R*)—N^6-(5-dimethyl-amino-pentyl)-(4S*,7R*)-[4,7-ethenylene-spiro[2.4]heptane]-5,6-dicarboxamide]",5.83,8.09
"CN(C)CCCNC(=O)[C@H]1[C@H](C(=O)Nc2ccc(Br)cc2)[C@@H]2C=C[C@H]1C21CC1 (racemic) [Example 52, (5R*)—N^5-(4-Bromophenyl)-(6R*)—N^6-(3-dimethyl-amino-propyl)-(4S*,7R*)-[4,7-ethenylene-spiro[2.4]heptane]-5,6-dicarboxamide]",5.20,8.02
"COCCCNC(=O)[C@H]1[C@H](C(=O)Nc2ccc(Br)cc2)[C@@H]2C=C[C@H]1C21CC1 (racemic) [Example 53, (5R*)—N^5-(4-Bromophenyl)-(6R*)—N^6-(3-methoxy-propyl)-(4S*,7R*)-[4,7-ethenylene-spiro[2.4]heptane]-5,6-dicarboxamide]",5.30,7.80
"O=C(NCCCn1cncn1)[C@H]1[C@H](C(=O)Nc2ccc(Br)cc2)[C@@H]2C=C[C@H]1C21CC1 (racemic) [Example 55, (5R*)—N^5-(4-Bromophenyl)-(6R*)—N^6-(3-1H-[1,2,4]-triazol-1-yl-propyl)-(4S*,7R*)-[4,7-ethenylene-spiro[2.4]heptane]-5,6-dicarboxamide]",5.18,7.74
"CC(C)(C)OC(=O)NCCCNC(=O)[C@H]1[C@H](C(=O)Nc2ccc(Br)cc2)[C@@H]2C=C[C@H]1C21CC1 (racemic) [Example 57, (5R*)—N^5-(4-Bromophenyl)-(6R*)—N^6-(3-(N-tert-butoxycarbonyl-amino)-propyl)-(4S*,7R*)-[4,7-ethenylene-spiro[2.4]heptane]-5,6-dicarboxamide]",5.78,7.77
"CC(C)CCNC(=O)[C@H]1[C@H](C(=O)Nc2ccc(Br)cc2)[C@@H]2C=C[C@H]1C21CC1 (racemic) [Example 58, (5R*)—N^5-(4-Bromophenyl)-(6R*)—N^6-(3-methyl-butyl)-(4S*,7R*)-[4,7-ethenylene-spiro[2.4]heptane]-5,6-dicarboxamide]",5.21,7.70
"COC(=O)CCNC(=O)[C@H]1[C@H](C(=O)Nc2ccc(Br)cc2)[C@@H]2C=C[C@H]1C21CC1 (racemic) [Example 60, (5R*)—N^5-(4-Bromophenyl)-(6R*)—N^6-(2-(methoxy-carbonyl)-ethyl)-(4S*,7R*)-[4,7-ethenylene-spiro[2.4]heptane]-5,6-dicarboxamide]",5.83,7.66
"NS(=O)(=O)c1ccc(CCNC(=O)[C@H]2[C@H](C(=O)Nc3ccc(Br)cc3)[C@@H]3C=C[C@H]2C32CC2)cc1 (racemic) [Example 61, (5R*)—N^5-(4-Bromophenyl)-(6R*)—N^6-(2-(4-aminosulfonyl-phenyl)-ethyl)-(4S*,7R*)-[4,7-ethenylene-spiro[2.4]heptane]-5,6-dicarboxamide]",5.64,7.64
"CCn1nc(CCNC(=O)[C@H]2[C@H](C(=O)Nc3ccc(Br)cc3)[C@@H]3C=C[C@H]2C32CC2)cc1C (racemic) [Example 62, (5R*)—N^5-(4-Bromophenyl)-(6R*)—N^6-(2-(1-ethyl-5-methyl-1H-pyrazol-3-yl)-ethyl)-(4S*,7R*)-[4,7-ethenylene-spiro[2.4]heptane]-5,6-dicarboxamide]",6.44,7.62
"CC(C)(C)OC(=O)NCCCCCNC(=O)[C@H]1[C@H](C(=O)Nc2ccc(Br)cc2)[C@@H]2C=C[C@H]1C21CC1 (racemic) [Example 68, (5R*)—N^5-(4-Bromophenyl)-(6R*)—N^6-(5-tert-butoxycarbonyl-amino-pentyl)-(4S*,7R*)-[4,7-ethenylene-spiro[2.4]heptane]-5,6-dicarboxamide]",5.66,7.57
"CC(C)(CNC(=O)OC(C)(C)C)CNC(=O)[C@H]1[C@H](C(=O)Nc2ccc(Br)cc2)[C@@H]2C=C[C@H]1C21CC1 (racemic) [Example 71, (5R*)—N^5-(4-Bromophenyl)-(6R*)—N^6-(2,2-dimethyl-3-N-tert-butoxycarbonyl-amino-propyl)-(4S*,7R*)-[4,7-ethenylene-spiro[2.4]heptane]-5,6-dicarboxamide]",5.26,7.20
